# Data published in US8772235B2, “Compounds having peptides conjugated to bone targeting moieties and methods of making and using thereof” (The Governors of the University of Alberta, priority 2009, dated 2014).
# Columns and labels:
# serum albumin = serum albumin (Homo sapiens, UniProt P02768); conditions: systemically administered; cited from earlier work
# [1] = Bone mineral specificity: calcium pyrophosphate binding assay; conditions: 1 h, 100 mM phosphate buffer pH 7
# Method: (§1) Bone targeting potential of sCT analogue was evaluated by determining the effect of sCT modification (due to chemical coupling) upon its bone mineral affinity. Specific volume of purified sCT analogue solution containing 10 μg of sCT was mixed with 1 mg Hydroxyapatite (HA) in 150 μL 100 mM phosphate buffer (pH 7.0) in microcentrifuge tubes in duplicate to give a final concentration of 66.67 μg/ml sCT. As a reference, control samples were incubated in tubes without HA (i.e., 0% of binding).
# (§2) The tubes were incubated at room temperature on a shaker for 1 h, and centrifuged at 5000 g for 5 minutes to separate the HA from the supernatant. sCT concentration in the supernatant was determined using the BCA microprotein assay (Pierce, USA) as described above. HA centrifugate remaining after removal of supernatant was washed five times using 1 mL buffer each time and the last washing after centrifugation at 5000 g for 5 minutes was collected. Both the washings and the HA centrifugate were then analyzed for sCT as described above. The amount of sCT in the supernatant, washings and HA centrifugate was then inferred by measuring the absorbance at 562 nm, with a value of 100% for control samples without HA.
# (§3) Bone mineral specificity of sCT analogue was then determined in the above manner using HA, calcium carbonate, calcium pyrophosphate, tricalcium phosphate and calcium oxalate.
# [2] = Circular dichroism, secondary structure of sCT, sCT-SMCC and sCT-BP; type: physicochemical; conditions: 20 mM acetate buffer pH 5.0, 400 μg/mL sCT or equivalent
# Method: For a more detailed analysis of the influence of BP coupling on secondary structural confirmation of sCT, the circular dichroism (CD) spectrum of sCT, sCT-SMCC and sCT-BP was measured in the 20 mM acetate buffer pH 5.0. CD spectra were obtained with a ConvCD spectrophotometer instrument. Spectra were acquired over a wavelength range of 190 to 260 nm. The N2 flow rate was set at 5 l/min. The sample cuvette was cleaned with 20 mM Sodium Acetate buffer pH 5, and the spectra of test samples, which comprised of 400 μg/mL of sCT or equivalent the same buffer, were recorded with the corresponding buffer serving as blanks.
# [3] = Bone mineral specificity: calcium carbonate binding assay; conditions: 1 h, 100 mM phosphate buffer pH 7
# Method: as §1, §2, §3
# RAW 264.7 cells = assay: MTT cytotoxicity on osteoclast precursor RAW 264.7 cells (SMCC series); type: cell-based; conditions: 100, 500 and 1000 nM sCT or equivalent, 4 hrs
# Method: RAW 264.7 cells (ATCC VA, USA) were seeded on 96 well plates at an initial density of 2×10^4 cells/well and incubated in 200 μl GIBCO High Glucose 1× Dulbecco's Modified Eagle Medium (DMEM) (Invitrogen CA, USA) supplemented with 4.5 g/L D-Glucose, L-Glutamine, 110 mg/L Sodium Pyruvate, 10% heat inactivated fetal bovine serum (FBS) and 1% Penicillin-Streptomycin (10000 U/mL; Invitrogen) in a Thermo Fisher Scientific Water Jacketed CO2 incubator (37° C., 5% CO2).
# After 72 hrs, media was replaced by 200 μl basic DMEM media without FBS and incubated for 30 minutes. […] After removing the supernatant and washing twice with phosphate buffer saline, purple formazan crystals formed were dissolved in 200 μl solubilization solution (in vitro toxicology assay kit, # TOX-1, Sigma Aldrich, St. Louis, USA) and the absorbance was measured at 570 nm using microplate reader. Experiment was performed for n=8 and the absorbance of wells containing cells without sCT treatment was considered as 100% viable and used to calculate the relative viability of sCT treated cells.
# In MTT assay, mitochondrial dehydrogenases of viable cells cleave the tetrazolium ring of MTT yielding purple formazan crystals which are insoluble in aqueous solutions. They were dissolved in acidified isopropanol and the resulting purple solution was measured spectrophotometrically. […]
# [4] = Effect on plasma calcium level in normal rats (PEG series); type: in vivo, rat; conditions: 20 IU sCT/kg equivalent, subcutaneous
# Method: (§4) Pharmacodynamic response of sCT analogue was evaluated by analyzing plasma calcium concentration in the rat model. Sprague Dawley female rats weighing 230-260 g (about 6 weeks old) were purchased from Charles River, USA and housed at the University of Alberta Animal Holding Unit. All experimental protocols were approved by the Animals Ethics Committee of the University of Alberta. The rats were divided randomly into five groups of 3 animals each and the pharmacodynamic response was assessed following subcutaneous administration of the sCT or analogue equivalent to 20 IU sCT/kg body weight. Rats were anesthetized using Isoflurane inhalation anesthesia and the 200 μl blood samples were obtained in heparinized Eppendorf microtubes before drug injection. Then 100 μl of sCT or equivalent dose in 20 mM Sodium Acetate buffer pH 5 was injected and the blood samples were collected 1, 2, 3 and 4 hrs post injection from jugular vein. Blood plasma was obtained by centrifuging the samples at 5000 rpm for 10 min and collecting the supernatant. Plasma calcium level was assayed by QuantiChrom™ Calcium Assay Kit (BioAssay Systems, CA USA) and the plasma phosphate level was assayed by QuantiChrom™ Phosphate Assay Kit (BioAssay Systems, CA USA).
# [5] = Effect on plasma calcium level in normal rats (SMCC series); type: in vivo, rat; conditions: 20 IU sCT/kg equivalent, subcutaneous
# Method: as §4, with “5 was sub cu injected and” for “5 was injected and”
# [6] = first hour, vs acetate buffer controls
substance,measurement,setting,value
"Salmon calcitonin [sCT, reference compound]",serum albumin bound in circulation,serum albumin,40%
same,sCT recovered in supernatant after incubation with Calcium Pyrophosphate,[1],did not significantly reduce the sCT concentration in the supernatant
same,secondary structure by CD spectrum,[2],random coil conformation
same,sCT concentration in supernatant after incubation with Calcium carbonate,[3],did not significantly reduce the sCT concentration in the supernatant
same,cytotoxicity (absorbance of formazan solution) compared to untreated media,RAW 264.7 cells,low levels of cytotoxicity
same,percentage of plasma calcium reduction,[4]; 4 hour post dosing,33.1±2.1%
same,percentage of plasma calcium reduction,[4]; [6],20.4±5.5%
same,percentage of plasma calcium reduction,[4]; second hour,29.9±4.9%
same,percentage of plasma calcium reduction,[5]; 4 hour post dosing,32.03±2.11%
same,percentage of plasma calcium reduction,[5]; [6],20.33±5.5%
same,percentage of plasma calcium reduction,[5]; second hour,28.98±4.65%
same,percentage of plasma calcium reduction,[5]; third hour,29.85±4.11%
